# Laboratory results published in patent publication US7511123B2, “Immuno-interactive fragments of the alpha-C subunit of inhibin” (Prince Henry's Institute of Medical Research, priority 1999, dated 2009).
# Columns and labels:
# As #128 [1] = experiment: RIA (Assay 2): competition with iodinated inhibin for As #128; format: binding, sheep
# Procedure, shortened: (§1)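 Graded doses of peptide or hr-inhibin standard competed with iodinated human recombinant 30 kDa inhibin tracer for the sheep antiserum at a set dilution, overnight at 4°C. Bound tracer was precipitated with goat anti-sheep IgG and gamma-counted. ED50 is the dose producing 50% loss of tracer binding.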
# PO-22 = experiment: Solid phase binding of Set 2 peptides to PO-22; parameters: species or system mouse; key: +++; ΦΦΦ strong effect; +, Φ weak effect; conditions: Set 2 biotinylated peptides 24 micromoles/L
# Experimental: (§2) The binding of the 41 biotinylated peptides as set forth in Table 7 (peptide set 2) to the mouse monoclonal antibodies (PO# series) was assessed as follows:
# (§3) a) Assay 1 (solid phase assay). The assay was undertaken as outlined in assay 1 of Example 2. Biotinylated peptides (24 micromoles/L) were initially bound to streptavidin-coated plates. Mab (at an appropriate dilution to give a detectable response, 1:1000, 1:10000 dilution of the culture medium) was then added and incubated for 1.5 hr. The amount of bound Mab was determined using horseradish peroxidase-bound anti-mouse IgG serum and enzyme activity detected at 450-630 nm using an ELISA plate reader.
# As #41 [2] = experiment: Competitive 2-site assay (Assay 3), approach (b); format: binding, sheep; conditions: biotinylated peptide pools or peptides incubated with iodinated As #41
# Description: This assay was developed to establish the relative importance of the individual peptides and peptide pools (identified as epitopes in Assays 1 and 2) in the sandwich antibody format used in the IFMA with As #128 as capture antibody and As #41 as detection antibody. Two approaches (a and b) were considered, Approach (a) explores the cross-reaction of peptides with inhibin for the immobilized As #128 while Approach (b) assesses their cross-reaction with inhibin for As #41.
# Approach (b). In this approach, the competition of peptides with the As #41 antiserum using the sandwich antibody format was assessed. Hr-Inhibin was initially incubated with the As #128 coated wells for 1 hour at room temperature. The biotinylated peptide pools and/or individual peptides were incubated together with iodinated As #41 for 1 hour and then added to the inhibin bound As #128 coated plates and incubated for 2 hours at room temperature. Plates were then washed to remove any unbound material and the resulting activity was measured in the gamma counter.
# R1 [3] = experiment: Solid phase binding of Set 2 peptides to R1; parameters: species or system mouse; key: +++; ΦΦΦ strong effect; +, Φ weak effect; conditions: Set 2 biotinylated peptides 24 micromoles/L
# Experimental: as §2, §3
# As #128 [4] = experiment: Solid phase assay (Assay 1): biotinylated peptides binding to As #128; parameters: species or system sheep; key: +++++ major contribution; + minor contribution; conditions: relative contribution
# Procedure, shortened: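 The 31 biotinylated peptides were captured on streptavidin-coated wells for 2 h at room temperature, then incubated with ovine antiserum #41 or #128 for 2 h at room temperature. Bound antiserum was detected with HRP-labelled anti-ovine IgG and a colorimetric substrate read spectrophotometrically; the signal is proportional to peptide binding.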
# As #41 [5] = experiment: Two-site assay design variation: biotinylated #41 pre-incubated with peptide; format: binding, sheep; conditions: non-biotinylated peptides 0.1-1.0 micromolar
# Experimental: (iv) In a variation to the above design, biotinylated #41 was pre-incubated with peptide (0.1-1.0 micromolar) for 1.5 hours at room temperature and then added to the As #128 coated plate pre-bound with inhibin as for (i)-(iii). […] Combination of peptide #5 and #30 led to 74% decrease.
# As #1989 = experiment: RIA (Assay 2): competition with iodinated inhibin for As #1989; format: binding, rabbit
# Procedure, shortened: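 Radioimmunoassay measuring how well peptides compete with iodinated 30 kDa human recombinant inhibin tracer for binding to antiserum #1989. Graded doses of peptide, iodinated inhibin and diluted antiserum were incubated overnight at 4° C. Antibody-bound tracer was precipitated with goat anti-sheep IgG serum and counted in a gamma counter. The ED50, the peptide concentration halving tracer binding, indicated affinity.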
# R1 [6] = experiment: RIA of Set 2 peptides with R1; format: binding, mouse; parameters: key: ΦΦΦ strong effect; +, Φ weak effect; a) limited binding; conditions: Set 2 biotinylated peptides 0.8 and 0.08 micromoles/L
# Experimental: The binding of the 41 biotinylated peptides as set forth in Table 7 (peptide set 2) to the mouse monoclonal antibodies (PO# series) was assessed as follows: b) Assay 2 (radioimrnunoassay, RIA) using iodinated human inhibin A as tracer. Mabs (at an appropriate dilution, see above) were incubated with iodinated human recombinant inhibin in the presence of biotinylated peptides (0.8 and 0.08 micromoles/L final concentration) overnight at room temperature.
# As #41 [7] = experiment: RIA (Assay 2): competition with iodinated inhibin for As #41; format: binding, sheep
# Procedure, shortened: as §1
# As#41 = experiment: Sandwich assay with As#41 as both coating and labeled antibody, no inhibin; format: binding, sheep; conditions: peptide added to both coating and labeled As#41
# Description: It has not been established if the same antibodies are present in As #128.
# As #128 [8] = experiment: Two-site assay design: peptides pre-incubated with As #128 coated plate; format: binding, sheep; conditions: non-biotinylated peptides 0.1-1 micromolar
# Experimental: On the other hand, the IFMA design is based on the total amount of inhibin bound which is a combination of both antibody affinity and concentration. In order to establish to what extent epitopes to these peptides contribute to the overall IFMA, the following two-site assay designs were used.
# (i) Peptides #5, #20 and #30 (0, 0.1-1 micromolar) were incubated with the As #128 coated plate for 1.5 hours at RT and the wells washed. The highest dose of peptide used was saturating.
# (ii) Hr-Inhibin was then added as a saturating or near saturating dose to the As #128 coated plate and incubated for 2 hours at room temperature and the plate washed.
# (iii) Biotinylated As #41 was added to the above wells and incubated for 2 hours at RT. Plates were then washed and counted.
# [9] = biotinylated peptides, 50% fall in binding of iodinated inhibin
# [10] = non-biotinylated peptides, hr-inhibin A as standard
substance,measurement,setting,value
SGSG WSPSALRLLQRPPE [Peptide 5],As#128 ED50,As #128 [1]; [9],3.8 µM
same,ED50 values As#128,As #128 [1]; [10],>10 µM
same,PO-22 SPB,PO-22,+++
same,blocking of As #41 binding to the inhibin-As#128 complex,As #41 [2],50%
same,R1 SPB,R1 [3],+
same,#128 Antibody screen Assay 1,As #128 [4],+
same,inhibition with biotinylated #41 pre-incubated with peptide,As #41 [5],50%
same,As#1989 ED50,As #1989; [9],>2.5 µM
same,ED50 values As#1989,As #1989; [10],>10 µM
same,R1 RIA,R1 [6],ΦΦΦ
same,As#41 ED50,As #41 [7]; [9],0.015 nM
same,cross-reaction with hr-inhibin for As #41 in RIA,As #41 [7]; in words,cross-reacted strongly
same,ED50 values As#41,As #41 [7]; [10],0.0004 µM
same,binding in the absence of inhibin,As#41,significant binding
same,suppression in binding with As #128,As #128 [8],65%
